The values below come from patent publication US20240287065A1, “COMPOUND AS CDK KINASE INHIBITOR AND USE THEREOF” (TYK MEDICINES (ZHENGZHOU) , INC., priority 2021, published 2024).

Where two headings read alike, the source gives them in different places. Bounds are passed on as bounds.

The test system of one assay is MCF-7-Palbo-R cells. The experiment in a line: MCF-7-Palbo-R cell antiproliferative assay (BrdU ELISA). The format is cell-based. The following applies: for IC50: 72 hours, BrdU; for Bottom(%): bottom of inhibition curve; for Top(%): top of inhibition curve. As for the experimental part: 1. Experimental Materials • MCF-7/palbo-R • EMEM medium (ATCC, 30-2003); DMEM/F12 medium (Gibco-1 1330-032) • Fetal bovine serum (cellmax-SA21 1.02) • DMSO (SIGMA, D2650) • BrdU ELISA cell proliferation assay kit (Roche, 11647229001) • ELISA (e.g. MD-SpectraMax ID5 or EnVision)
2. Experimental protocol • 1. Cell spreading • 1) Cells were counted, the concentration of cell suspension was adjusted • 2) The MCF7/Palbo-R cell suspension was seeded in 96-well plates at […] volume to make the number of cells per well is 4000-5000; • 3) Blank control group was added with 90 μl of culture medium; • 2. […] A 3-fold serial gradient dilution was performed with 0.1% DMSO medium for a total of 9 concentrations, and the concentrations of the compounds after dilution were as follows: • 10000 nM, 3333.33 nM, 1111.11 nM, 370.34 nM, 123.45 nM, 41.15 nM, 13.72 nM, 4.57 nM, and 1.52 nM. • b) After 72 hours of compound treatment. • 1) A 10 mM of Brdu stock solution was diluted with RPMI medium and added to a 96-well plate at 20 uL/well and shaken at 350 rpm for 10 minutes. • 2) The 96 well plate was placed back into the incubator for 1 or 2 hours. • 3) After the medium was removed from the 96-well plate, 200 ul/well of Fixation/Denaturation solution was added and incubated for 30 minutes at room temperature. • 4) The fixation solution was removed and 100 ul of peroxidase-coupled anti-Brdu antibody solution (antibody dilution prepared at 1:100 dilution) was added, • and incubated at 350 rpm for 1 hour at room temperature. • 6) The 96-well plate was washed three times with 300 ul/well of PBS. • 8) 100ul of peroxidase substrate solution was added and shaken at 350 rpm for about 10-20 minutes at room temperature, • until the DMSO-treated cell control wells turn a medium blue color. If a color is too dark, it will cause the absorbance value to out of the reading range. • 9) The reaction was terminated by the addition of 25 ul of 1 M sulfuric acid. Shake to ensure uniform color. • 10) The absorbance at 450 nm was recorded. • 3. Data analysis • The inhibition rate is calculated using the following equation:
IR (%)=(1−(RLU compound−RLU blank)/(RLU control−RLU blank))*100%.
(Uptake of a labelled nucleoside into DNA is a usual measure of proliferation.)

A further assay has as its target CDK2/CycE1 (Homo sapiens, UniProt P24941). The assay can be described thus: Enzyme activity test. Type of assay: biochemical. In a few lines: (§1)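 Compounds ([…] DMSO stock) were preincubated 30 min at room temperature with enzyme, substrate and cofactor before ATP addition. The reaction ran 150 min at room temperature and was read on EZ Reader (mobility shift). Percent inhibition was calculated against DMSO and no-enzyme controls.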

The target of a further assay is CDK4/CycD3 (Homo sapiens, UniProt P11802). The assay can be described thus: Enzyme activity test. Type of assay: biochemical. In a few lines:
as §1

A further assay addresses CDK6/CycD1 (Homo sapiens, UniProt Q00534). The experiment in a line: Enzyme activity test. The format is biochemical. A digest of the protocol: as §1

CDK4/CycD3, sequence (P11802 whole entry, species assumed): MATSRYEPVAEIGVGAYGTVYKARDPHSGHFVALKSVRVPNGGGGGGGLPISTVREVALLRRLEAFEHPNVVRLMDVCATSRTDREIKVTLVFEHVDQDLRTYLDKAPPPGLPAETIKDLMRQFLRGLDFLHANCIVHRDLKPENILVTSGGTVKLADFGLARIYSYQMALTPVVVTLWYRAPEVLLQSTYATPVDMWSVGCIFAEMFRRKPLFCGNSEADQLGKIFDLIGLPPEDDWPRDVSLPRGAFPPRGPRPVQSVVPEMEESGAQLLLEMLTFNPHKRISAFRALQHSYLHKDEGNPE
CDK4/CycD3, sequence (P30281 whole entry partner, species assumed): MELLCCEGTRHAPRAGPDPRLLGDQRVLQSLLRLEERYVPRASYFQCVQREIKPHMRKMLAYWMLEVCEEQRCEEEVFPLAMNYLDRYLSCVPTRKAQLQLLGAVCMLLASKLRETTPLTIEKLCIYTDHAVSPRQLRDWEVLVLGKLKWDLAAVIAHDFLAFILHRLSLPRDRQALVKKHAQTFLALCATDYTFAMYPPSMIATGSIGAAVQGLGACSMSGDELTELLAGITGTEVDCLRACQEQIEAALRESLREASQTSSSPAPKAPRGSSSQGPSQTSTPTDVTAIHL
CDK6/CycD1, sequence (Q00534 whole entry, species assumed): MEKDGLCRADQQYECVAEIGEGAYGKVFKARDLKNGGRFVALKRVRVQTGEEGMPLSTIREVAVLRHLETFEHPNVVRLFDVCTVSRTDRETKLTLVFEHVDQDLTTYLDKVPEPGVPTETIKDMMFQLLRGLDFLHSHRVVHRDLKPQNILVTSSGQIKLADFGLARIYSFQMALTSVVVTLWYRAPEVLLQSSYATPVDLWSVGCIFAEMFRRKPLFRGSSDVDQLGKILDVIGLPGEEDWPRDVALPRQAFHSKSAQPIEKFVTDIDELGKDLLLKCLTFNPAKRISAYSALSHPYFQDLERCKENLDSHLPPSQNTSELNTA
CDK6/CycD1, sequence (P24385 whole entry partner, species assumed): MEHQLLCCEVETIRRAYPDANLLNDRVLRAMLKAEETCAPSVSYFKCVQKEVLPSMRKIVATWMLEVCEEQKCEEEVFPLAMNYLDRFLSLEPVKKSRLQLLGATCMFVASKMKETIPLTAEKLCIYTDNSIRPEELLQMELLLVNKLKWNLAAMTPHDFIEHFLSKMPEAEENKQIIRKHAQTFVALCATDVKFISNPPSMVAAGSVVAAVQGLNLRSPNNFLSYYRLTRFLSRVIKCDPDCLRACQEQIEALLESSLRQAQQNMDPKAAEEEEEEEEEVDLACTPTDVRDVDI

As for `C[C@@]1(O)CCC[C@H]1n1c(=O)c(OC(F)F)cc2cnc(NC3CCN(S(C)(=O)=O)CC3)nc21` [Example 3], the IC50 with MCF-7-Palbo-R cells (read-out: AbsIC50) is 36 nM; in the assay on MCF-7-Palbo-R cells (read-out: ReIC50) it was 38 nM; on CDK2/CycE1 it was less than 10 nM; at CDK4/CycD3, less than 10 nM; against CDK6/CycD1 it was less than 10 nM. Further, in the assay with MCF-7-Palbo-R cells, the “Bottom(%)” value is listed as 6.317%. Also, the “Top(%)” value in the assay on MCF-7-Palbo-R cells was found to be 98.857%.
On to `C[C@@]1(O)CCC[C@H]1n1c(=O)c(C(F)F)cc2cnc(NC3CCN(S(C)(=O)=O)CC3)nc21` [PF-06873600, reference compound], for which, in the assay with MCF-7-Palbo-R cells (read-out: AbsIC50), the IC50 came out at 54 nM. The IC50 in the assay with MCF-7-Palbo-R cells (read-out: ReIC50) is 49 nM. For the same molecule, in the assay on MCF-7-Palbo-R cells, the “Bottom(%)” value was 7.487% and the “Top(%)” value stood at 98.896%.
